Source: patent US20100004333A1, “COMPOSITIONS AND METHODS FOR TREATING CARDIOVASCULAR DISORDERS” (priority 2004, published 2010)

Tests used:
[1] = Oxidation of probucol or DTBP in hexane by 1e- and 2e-oxidants (HPLC, ion exchange chromatography); assay type: physicochemical; details: compound 1 mM in hexane, 60 min, 37° C.
[2] = Total aortic drug concentration in apoE−/− mice, 5 months; assay type: in vivo
Text: ApoE−/− mouse model. Four groups of male apoE−/− mice (8-10 weeks, Animal Resources Centre, Perth, Australia) were fed a high fat diet based on Harlan Teklad diet TD88137±1% (wt/wt) probucol (96% purity, a gift from AstraZeneca, Sweden), 0.02% DTBP, or 0.02% BP (Polysciences, Warrington, Pa.) for 5 months. Tissue harvesting and analyses were done as described in Examples 1 and 3, using 15 and 10 mice of each group for biochemical and histological analyses, respectively. Histology and immunohistochemistry. Aortic lesion assessment was carried out at four sites (sinus, arch, thoracic and abdominal aorta) as described in Example 1. Immediately adjacent sections were employed for immunohistochemistry, using Mac-3 (macrophages, dilution 1:200, DAKO), PCNA (cell proliferation, dilution 1:500, DAKO) and anti-rat HO-1 monoclonal antibody (dilution 1:50, Santa Cruz) with avidin-biotin-horseradish peroxidase for signal detection (Vectorstain Elite ABC Kit, Vector Laboratories). Apoptosis was assessed using the TUNEL assay kit (Roche) according to the manufacture's instructions. Digital images were taken for quantitative morphometric analysis. Mac-3^+ areas were determined using Adobe Photoshop V6.0 by tracing. Total cell profiles, TUNEL^+ and PCNA^+ cells were counted manually at high magnification (40× objective). A single operator using coded samples performed all analyses blinded. Heme oxygenase. Heme oxygenase activity was determined in microsomes prepared from homogenized aortic tissue and assessed by HPLC as described in Circulation 2004, 110: 1855-1860. Statistics. All data are expressed as mean±SEM. One-way ANOVA and the student-Newman-Keul's test were used to evaluate differences between groups, with P<0.05 considered significant.

[3] = Oxidation of probucol or DTBP in hexane by 1e- and 2e-oxidants (HPLC, ion exchange chromatography); assay type: physicochemical; details: for Depletion: compound 1 mM in hexane, 60 min, 37° C.; for SO4^2− in aqueous phase of reaction mixture: oxidized with 5-mol equivalent HOCl, antioxidant-free mixture 58±5 nmol
Method: (§1) All other reagents were of the highest quality available. Buffers were routinely filtered, argon-flushed and stored at 4° C. prior to use. Solutions of HOCl were prepared freshly before use by diluting reagent HOCl (Aldrich) into phosphate buffer (250 mM, pH 7.0) and standardizing with ε235 nm˜100 M^−1cm^−1 (hypochlorous acid) and ε290 nm˜300 M^−1cm^−1 (hypochlorite), as described in Journal of Physical Chemistry 1966, 70:3798-3805. Animals: New Zealand White rabbits (2.5-3 kg) were obtained from a commercial farm (Wauchope, NSW Australia) and housed individually for the entire study period. […] Feed and water were provided ad libitum for a period of 4 weeks judged to be sufficient time for circulating drug levels to reach a maximum (data not shown). […] The local ethics committee approved the study. Vascular reactivity: Perfused rabbit aortas were harvested and vascular reactivity studies performed as described in Circulation 2003, 107:2031-2036. Briefly, within 2 h of isolation, ring segments ˜5 mm in length were mounted in a myobath system (World Precision Instruments, Sarasota, Fla.) containing 20 mL of Krebs solution aerated at 37° C. with 5% CO2(g), and the dilatory response of half maximally norepinephrine pre-constricted rings to incremental doses of ACh (10^−9-10^−5 mol/L) determined. Where indicated, reagent HOCl (final concentration 400 μM) was added to the Krebs solution and the rings incubated for 5 min prior to thorough washing, pre-constriction and assessment of vessel relaxation. In some studies rings were incubated with probucol or DTBP for 10 min, washed thoroughly and then exposed to HOCl prior to assessing endothelium-dependent relaxation. A maximum of three consecutive sequences of constriction/relaxation were performed for each ring. Preparation of Aortic Homogenates: Aortic Rings Used in the Vascular Function Studies were removed and immediately cut into small pieces, frozen in liquid nitrogen, and then pulverized and homogenized as described. An aliquot (50 μL) of homogenate was removed for protein determination (BCA assay, Sigma) and the remainder extracted into methanol/hexane (5:1, v/v), the resulting hexane fraction dried and the residue suspended in isopropanol for analysis of probucol and its oxidation products. For cGMP determinations, aortic segments were treated with vehicle (control) or HOCl (400 μM) before addition of 1 μM ACh in the presence of 200 μM 3-isobutyl-1-methylxanthine and measurement of cGMP in the homogenate using a kit (Cayman Chemical, Ann Arbor, Mich.). Probucol oxidation studies: Probucol is a highly lipophilic compound (partition coefficient between octanol and water=[…]) that readily distributes into lipoproteins. To mimic the biological situation, oxidation reactions were therefore performed with probucol (or DTBP) dissolved in hexane (2 mL) to which aliquots of HOCl were added to give the final concentrations indicated. The heterogeneous mixtures were shaken vigorously at 37° C. for 60 min, then placed on ice after adding 1 mL water, the hexane phase removed, dried under vacuum and resuspended in isopropanol (200 μL) for HPLC analyses (see below). The aqueous phase was analyzed for the content of sulfate anion (SO4^2−) by ion exchange chromatography (see below). Analytical analyses: Probucol, DTBP, BP and DPQ were analyzed by gradient reversed-phase HPLC and quantified by peak area comparison with authentic standards. Under the conditions used, BP, DTBP, probucol and DPQ eluted at 12.5, 19.2, 20.8 and 28.4 min, respectively. Other oxidation products resolved by this HPLC system were also quantified by peak area comparison, using analytically pure samples obtained from semi-preparative (LC-18, 20 mm×25 cm, 5 μm) fractionation of the reaction mixture. Isolated samples were dried under vacuum, re-dissolved to a known concentration and assessed for purity by analytical HPLC (LC-18, 4.6 mm×25 cm, 5 μm) in combination with mass spectrometry (see below). […]

[4] = system: aortic rings from rabbits; assay type: cell-based, New Zealand White rabbits; details: for Protection of aortic rings from HOCl-induced loss of response to ACh: 10 min pre-incubation with 10, 25 or 100 μM, FIG. 7
Method: as §1, with “Preparation of Aortic Homogenates: Aortic Rings Used in the Vascular Function Studies were removed and immediately cut into small pieces, frozen in liquid nitrogen, and then pulverized and homogenized as described. An aliquot (50 μL) of homogenate was removed for protein determination (BCA assay, Sigma) and the remainder extracted into methanol/hexane (5:1, v/v), the resulting hexane fraction dried and the residue suspended in isopropanol for analysis of probucol and its oxidation products. For cGMP determinations, aortic segments were treated with vehicle (control) or HOCl (400 μM) before addition of 1 μM ACh in the presence of 200 μM 3-isobutyl-1-methylxanthine and measurement of cGMP in the homogenate using a kit (Cayman Chemical, Ann Arbor, Mich.).” left out, “To mimic the biological situation, oxidation reactions were therefore performed with probucol (or DTBP) dissolved in hexane (2 mL) to which aliquots of HOCl were added to give the final concentrations indicated. The heterogeneous mixtures were shaken vigorously at 37° C. for 60 min, then placed on ice after adding 1 mL water, the hexane phase removed, dried under vacuum and resuspended in isopropanol (200 μL) for HPLC analyses (see below).” left out, “Under the conditions used, BP, DTBP, probucol and DPQ eluted at 12.5, 19.2, 20.8 and 28.4 min, respectively.” left out

SMILES	DPQ Yield ([1]; oxidant AAPH 5 mM)	DPQ Yield ([1]; oxidant Ce^4+ 5 mM)	Depletion ([1]; oxidant Ce^4+ 5 mM)	DPQ Yield ([1]; oxidant Cu^2+ 5 mM)	Depletion ([1]; oxidant Cu^2+ 5 mM)	DPQ Yield ([1]; oxidant Fe^2+/H2O2 5 mM)	Depletion ([1]; oxidant Fe^2+/H2O2 5 mM)	DPQ Yield ([1]; oxidant H2O2 5 mM)	Depletion ([1]; oxidant H2O2 5 mM)	DPQ Yield ([1]; oxidant HOCl 5 mM)	DPQ Yield ([1]; oxidant ONOO^− 5 mM)	Depletion ([1]; oxidant ONOO^− 5 mM)	DPQ Yield ([1]; oxidant PbO2 5 mM)	Depletion ([1]; oxidant PbO2 5 mM)	Depletion ([3]; oxidant AAPH 5 mM)	Depletion ([3]; oxidant HOCl 5 mM, air)	SO4^2− in aqueous phase of reaction mixture [3]	Protection of aortic rings from HOCl-induced loss of response to ACh ([4]; washed, then 400 μM HOCl)	further results
CC(C)(C)c1cc(SSc2cc(C(C)(C)C)c(O)c(C(C)(C)C)c2)cc(C(C)(C)C)c1O [DTBP, 4,4′-dithiobis(2,6-di-tert-butyl-phenol)]	0 ± 0 µM	89 ± 11 µM	16 ± 1%	0 ± 0 µM	0 ± 0%	4.8 ± 3.7 µM	1 ± 0%	0 ± 0 µM	0 ± 0%	91 ± 8.7 µM	1.9 ± 0.6 µM	6 ± 1%	145 ± 8.9 µM	99 ± 0.4%	0 ± 0%	96 ± 3%	204 ± 43 nmol	protected aortic rings from HOCl-induced dysfunction when added in vitro	Total aortic drug concentration ([2]; male, apoE−/−, mouse, in vivo, 5 months): 7.1±1.4 nmol/mg protein; Bioavailability relative to probucol ([2]; mouse, in vivo): clearly superior bioavailability compared to probucol
CC(C)(Sc1cc(C(C)(C)C)c(O)c(C(C)(C)C)c1)Sc1cc(C(C)(C)C)c(O)c(C(C)(C)C)c1 [probucol]	0 ± 0 µM	78 ± 7.9 µM	15 ± 2%	0.9 ± 0.1 µM	2 ± 1%	8.7 ± 1.7 µM	3 ± 1%	0 ± 0 µM	0 ± 0%	102 ± 11 µM	2.1 ± 0.2 µM	7 ± 1%	92 ± 21 µM	> 90%	0 ± 0%	> 90%	139 ± 14 nmol	protected the vessels from HOCl-induced loss of response to ACh in a concentration dependent manner	Depletion ([1]; oxidant HOCl 5 mM, air): 98 ± 4%; Depletion ([1]; oxidant PbO2 5 mM, listed as Probucol): 99 ± 1.1%; Total aortic drug concentration ([2]; apoE−/− mice, high fat diet 5 months, 1% probucol, 0.02% DTBP, 0.02% BP): 21.8±8.4 nmol/mg protein; Concentration at which full protection from HOCl-induced loss of response to ACh was seen ([4]; 10 min pre-incubation, washed, then 400 μM HOCl): 100 µM; Tissue cGMP in response to ACh ([4]; rings pre-treated with 100 μM, FIG. 7B): increased tissue content of cGMP
